Values quoted from earlier work as cited in patent publication US20030203047A1 (priority 2002, published 2003).
Read-outs that look alike come from different tables or passages of the source.

Key:
aromatase = biological target: T1, aromatase (Homo sapiens, UniProt P11511); details: compared with chrysin, AG and ANG
T1 sequence (P11511 1-503): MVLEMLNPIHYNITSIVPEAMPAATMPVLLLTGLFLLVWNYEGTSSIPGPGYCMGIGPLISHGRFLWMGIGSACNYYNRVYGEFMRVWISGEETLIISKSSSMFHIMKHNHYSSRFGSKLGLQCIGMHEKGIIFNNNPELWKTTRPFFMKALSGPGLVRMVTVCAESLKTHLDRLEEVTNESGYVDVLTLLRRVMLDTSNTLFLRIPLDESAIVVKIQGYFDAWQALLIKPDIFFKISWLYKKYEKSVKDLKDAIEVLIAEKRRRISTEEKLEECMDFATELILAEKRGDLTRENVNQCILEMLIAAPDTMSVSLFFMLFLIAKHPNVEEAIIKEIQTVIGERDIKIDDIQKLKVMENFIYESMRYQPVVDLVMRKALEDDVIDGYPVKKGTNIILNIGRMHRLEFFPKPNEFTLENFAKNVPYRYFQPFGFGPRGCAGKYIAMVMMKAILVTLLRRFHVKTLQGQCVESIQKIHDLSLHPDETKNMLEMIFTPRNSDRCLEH

patients on dialysis = details: compared with placebo
young female rats = details: constant infusion
[1] = in vivo
[2] = supplementation
[3] = supplementation; remark: listed apart in the source
healthy young men = details: 300 mg/wk for six weeks
hypogonadal men = details: for waking erection: Asian group of hypogonadal men; for sexual interest and activity, spontaneous erection: Caucasian group of hypogonadal men
[4] = for plasma testosterone: panhypopituitarism
[5] = tested on: prostate and seminal vesicle weights; levator ani muscles
HIV-infected men = details: pharmacological doses
androgen receptor = details: seminal vesicle; relative to the unreduced steroid

## COc1ccc(-c2coc3cc(O)cc(O)c3c2=O)cc1 [Biochanin A, 5,7-dihydroxy-4′-methoxyisoflavone]
aromatase
  aromatase inhibition (in words): to a lesser degree

## C[C@]12CC[C@H]3[C@@H](CCC4=CC(=O)CC[C@@H]43)[C@@H]1CC[C@@H]2O [nandrolone, 19-nor-testosterone]
Patients on dialysis
  lean body mass: increased significantly
Young female rats
  energy expenditure: increased
[1]
  adverse finding associated with use: azoospermia
  decrease in HDL-cholesterol: 25-27%

## C[C@]12CCC(=O)C=C1CC[C@@H]1[C@@H]2CC[C@]2(C)C(=O)CC[C@@H]12 [4-androstenedione]
[2]
  serum testosterone: elevations

## C[C@]12CC[C@H]3[C@@H](CCC4=C[C@@H](O)CC[C@@]43C)[C@@H]1CC[C@@H]2O [4-androstenediol]
[2]
  serum testosterone: elevations
[3]
  urine testosterone concentration relative to 4-androstenedione: 10 fold

## C[C@]12CC[C@H]3[C@@H](CC=C4C[C@@H](O)CC[C@@]43C)[C@@H]1CC[C@@H]2O [5-androstenediol]
Young female rats
  proportion of protein in the body composition: increased

## C[C@]12CC[C@H]3[C@@H](CCC4=CC(=O)CC[C@@]43C)[C@@H]1CC[C@@H]2O [Testosterone]
Young female rats
  proportion of protein in the body composition: increased

## CCCCCCC(=O)O[C@H]1CC[C@H]2[C@@H]3CCC4=CC(=O)CC[C@]4(C)[C@H]3CC[C@]12C [TE, testosterone enanthate]
Healthy young men
  circumferences with significant increases (of fifteen): shoulders
Hypogonadal men
  waking erection: increased
  sexual interest and activity, spontaneous erection: significant increases

## C[C@]12CC[C@H](O)CC1=CC[C@@H]1[C@@H]2CC[C@]2(C)C(=O)CC[C@@H]12 [DHEA, dehydro-epiandrosterone]
[4]; 50 mg dose
  plasma testosterone: levels similar to those observed in young women
[4]; 50 mg or 200 mg
  increase of plasma delta 4-androstenedione: significant and dose dependent
  plasma estrogens, particularly estradiol: significant and dose dependent increase
[4]; 200 mg dose
  plasma testosterone: slightly below the levels observed in normal men
[4]; both doses
  increase of plasma dihydrotestosterone levels: small

## C[C@@H]1CC2=CC(=O)CC[C@@H]2[C@H]2CC[C@]3(C)[C@@H](O)CC[C@H]3[C@@H]21 [MENT, 7α-methyl-19-nor-testosterone]
[5]; measured by prostate and seminal vesicle weights
  androgenic potency relative to testosterone: four- to five-times
[5]; measured in the levator ani muscles
  anabolic potency relative to testosterone: ten-times
Hypogonadal men
  waking erection: increased
  sexual interest and activity, spontaneous erection: significant increases

## CCCCCCCCCC(=O)O[C@H]1CC[C@H]2[C@@H]3CCC4=CC(=O)CC[C@@H]4[C@H]3CC[C@]12C [nandrolone decanoate]
Healthy young men
  circumferences with significant increases (of fifteen): shoulders and chest
HIV-infected men
  total weight, lean body mass, body cell mass, muscle size and strength: significant gains

## C[C@]12CCC(=O)C[C@@H]1CC[C@@H]1[C@@H]2CC[C@]2(C)[C@@H](O)CC[C@@H]12 [DHT, 5α-androstan-17β-ol-3-one]
Androgen receptor
  change of affinity to the androgen receptor on 5-alpha-reduction: increasing by seven- to eight-fold
